Assay [1] has as its system Tilletia tritici. Description: Seed dressing test against wheat bunt (Tilletia tritici). To be noted: Tilletia caries, read-out: % effectiveness (percentage germination inhibition). It is filed as in vivo. Here is the method:
Healthy wheat seed is uniformly infected with spores of Tilletia tritici.The infected seed is subsequently dressed carefully with the active substances according to the invention, prepared in the form of dry dressings.
After being dressed, the wheat grains are placed in dishes of damp earth. Incubation takes place in a drying cupboard at from 14° to 17° C. After 48 hours, the spores adhering to the grains are removed by pressing the grains into loam/earth.
After incubation for a further eight days at from 14° to 17° C. in the drying cupboard, the ratio of germinated and ungerminated spores as, compared with an untreated control, is determined under a binocular microscope.
The action of the active substances according to the invention, is given as percentage germination inhibition. […]

The subject of assay [2] is Penicillium glaucum. Description: Spore germination test, Penicillium glaucum. It is filed as cell-based. The following applies: 500 ppm active substance, 48 hours at 20° C., vs untreated control, read-out: Fungitoxicity against fungi spore, Penicillium glaucum (effectiveness). Here is the method: (§1) 50 μl of a solution or suspension containing 500 ppm of the active substance are introduced into the hollow of hollow-ground slides, together with 50 μl of a spore suspension prepared by washing the spores from an agar culture with a nutrient solution containing, per liter, 10 g of sugar, 1 g of glycol, 1 g of KH2 PO4 and 0.5 g of MgSO4.
(§2) The slides are kept at 20° C. for 48 hours in a petri dish, the base of which is covered with a moistened filter paper.
(§3) The ratio of germinated and ungerminated spores is then compared with an untreated control sample.
(§4) The effectiveness is calculated as a percentage according to the following formula: [formula]
(§5) The test set-up and procedure are the same as those described in Example 5.

Assay [3] relates to Botrytis cinerea. Put plainly: Grape juice test against Botrytis cinerea. It is filed as cell-based. To be noted: 10 ppm active substance. Here is the method: 20 ml of a nutrient solution consisting of grape juice and distilled water in a weight ratio of 1:1 are poured into glass petri dishes and the active substances listed in Table 1 are added thereto in the concentrations indicated. Each test mixture is then inoculated with 50 μl of a suspension of Botrytis spores, prepared by washing the Botrytis spores from an agar culture with distilled water.
After incubation periods of 10 and 20 days, respectively, at 20° C., the extent of fungal development on the surface of the nutrient solution is assessed.
The effectiveness is calculated as a percentage, according to the following formula: [formula] […]

The test system of assay [4] is Fusarium nivale. Put plainly: Spore germination test, Fusarium nivale. It is filed as cell-based. The following applies: Microdochium nivale; 500 ppm active substance; 48 hours at 20° C.; vs untreated control; read-out: Fungitoxicity against fungi spore, Fusarium nivale (effectiveness). On the procedure: as §1, §2, §3, §4, §5
For assay [5], the system named is Botrytis cinerea. Put plainly: Spore germination test, Botrytis cinerea. It is filed as cell-based. The following applies: 500 ppm active substance, 48 hours at 20° C., vs untreated control, read-out: Fungitoxicity against fungi spore, Botrytis cinerea (effectiveness). On the procedure: as §1, §2, §3, §4, §5
Assay [6] concerns Alternaria solani. Description: Spore germination test, Alternaria solani. In kind it is cell-based. The following applies: 500 ppm active substance, 48 hours at 20° C., vs untreated control, read-out: Fungitoxicity against fungi spore, Alternaria solani (effectiveness). Here is the method: as §1, §2, §3, §4, §5
In assay [7] the test system is Septoria nodorum. Put plainly: Spore germination test, Septoria nodorum. The following applies: Parastagonospora nodorum; 500 ppm active substance; 48 hours at 20° C.; vs untreated control; read-out: Fungitoxicity against fungi spore, Septoria nodorum (effectiveness). In kind it is cell-based. On the procedure: as §1, §2, §3, §4, §5
The mark [8] stands for this setting: 240 h, 10 days at 20° C., read-out: % effectiveness after 10 days.
[9] abbreviates: 480 h, 20 days at 20° C., read-out: % effectiveness after 20 days.

Where two headings read alike, the source gives them in different places.

`CCC(C)N1C(=O)CC(COC)C1=O` (centres unmarked) [2-methoxymethylsuccinic acid N-(but-2-yl)imide]: the inhibition at 100 ppm in assay [1] came out at 80%.
As to `CCC=CCSC1CC(=O)N(c2cc(Cl)cc(Cl)c2)C1=O` (centres unmarked) [2-(pent-2-en-1-ylmercapto)-succinic acid N--(3,5-dichlorophenyl)imide, reference compound], the inhibition of growth at 500 ppm stood at 10% in assay [2]; 20% in assay [4]; 20% in assay [5]; 20% in assay [6]; 10% in assay [7]. For the same compound, the inhibition of growth at 10 ppm in assay [3] (setting [8]) came out at 80%; in assay [3] (setting [9]), 45%. The inhibition at 100 ppm in assay [1] was determined as 40%.
In the case of `CCCc1ccc(N2C(=O)CC(OC)C2=O)cc1` (centres unmarked) [2-methoxysuccinic acid N--(4-propylphenyl)imide], the inhibition at 100 ppm in assay [1] was determined as 80%.
As to `CC(C)OC1CC(=O)N(c2cc(Cl)cc(Cl)c2)C1=O` (centres unmarked) [2-isopropoxysuccinic acid N-(3,5-dichlorophenyl)imide], the inhibition of growth at 500 ppm in assay [2] was determined as 100%; in assay [4] it was 50%; in assay [5], 100%; in assay [6], 70%; in assay [7] it was 50%. For the same compound, the inhibition of growth at 10 ppm in assay [3] (setting [8]) and in assay [3] (setting [9]) was 100% throughout. For the same compound, the inhibition at 100 ppm in assay [1] is 100%.
Take `CC(=O)OC1CC(=O)N(c2cc(Cl)cc(Cl)c2)C1=O` (centres unmarked) [2-acetoxysuccinic acid N-(3,5-dichlorophenyl) imide]: the inhibition of growth at 500 ppm was 100% in assay [2]; 100% in assay [4]; 100% in assay [5]; 100% in assay [6]; 70% in assay [7]. Besides, the inhibition of growth at 10 ppm in assay [3] (setting [8]) is 80%; in assay [3] (setting [9]) it was 70%. The inhibition at 100 ppm in assay [1] was 100%.
For the compound `COCC1CC(=O)N(c2cc(Cl)cc(Cl)c2)C1=O` (centres unmarked) [2-methoxymethylsuccinic acid N-(3,5-dichlorophenyl)imide], the inhibition of growth at 500 ppm in assay [2] amounted to 100%; in assay [4], 100%; in assay [5] it was 100%; in assay [6], 100%; in assay [7], 70%. Besides, the inhibition of growth at 10 ppm in assay [3] (setting [8]) and in assay [3] (setting [9]) was 100% in each case. The inhibition at 100 ppm in assay [1] is 100%.
In the case of `O=C1CC(C2C=CCCC2)C(=O)N1c1cc(Cl)cc(Cl)c1` (centres unmarked) [2-(cyclohex-2-en-1-yl)-succinic acid N--(3,5-dichlorophenyl)imide, reference compound], the inhibition of growth at 500 ppm in assay [2] stood at 0%; in assay [4], 0%; in assay [5], 25%; in assay [6], 30%; in assay [7], 30%. In addition, the inhibition of growth at 10 ppm in assay [3] (setting [8]) and in assay [3] (setting [9]) was 0% each time. Further, the inhibition at 100 ppm in assay [1] came to 0%.
As to `CC(C)NC(=O)N1CC(=O)N(c2cc(Cl)cc(Cl)c2)C1=O` [Rovral, 3-(3,5-dichlorophenyl)-1-isopropylcarbymoylhydantoin, reference compound], the inhibition of growth at 500 ppm in assay [2] was 60%; in assay [4], 0%; in assay [5] it was 100%; in assay [6], 0%; in assay [7], 30%. In addition, the inhibition at 100 ppm in assay [1] amounted to 75%.
On to `CCOC1CC(=O)N(c2cc(Cl)cc(Cl)c2)C1=O` (centres unmarked) [2-ethoxysuccinic acid N-(3,5-dichlorophenyl)imide], for which the inhibition of growth at 500 ppm in assay [2] was 80%; in assay [4], 80%; in assay [5] it was 100%; in assay [6], 70%. The inhibition of growth at 10 ppm in assay [3] (setting [8]) and in assay [3] (setting [9]) was 100% in each case. In addition, in assay [1], the inhibition at 100 ppm came out at 90%.
For `C=CCOC1CC(=O)N(c2cc(Cl)cc(Cl)c2)C1=O` (centres unmarked) [2-allyloxysuccinic acid N-(3,5-dichlorophenyl)imide], the inhibition of growth at 500 ppm is 80% in assay [2]; 70% in assay [4]; 100% in assay [5]; 80% in assay [6]; 80% in assay [7]. Further, the inhibition of growth at 10 ppm in assay [3] (setting [8]) and in assay [3] (setting [9]) was 80% throughout. Besides, in assay [1], the inhibition at 100 ppm is 100%.
Take `C=CCN1C(=O)CC(OC(=O)C(C)C)C1=O` (centres unmarked) [2-isobutyroxysuccinic acid N--allylimide, 2-isobutyroxysuccinic acid N-allylimide]: the inhibition at 100 ppm in assay [1] worked out at 80%.
Take `COCC1CC(=O)N(c2cccc(Cl)c2)C1=O` (centres unmarked) [2-methoxymethylsuccinic acid N-(3-chlorophenyl)imide]: the inhibition of growth at 10 ppm in assay [3] (setting [8]) was determined as 90%; in assay [3] (setting [9]), 80%. Moreover, the inhibition at 100 ppm in assay [1] is 80%.
For `COC1CC(=O)N(c2cc(Cl)cc(Cl)c2)C1=O` (centres unmarked) [2-methoxysuccinic acid N-(3,5-dichlorophenyl) imide], the inhibition of growth at 500 ppm in assay [2] stood at 80%; in assay [4] it was 90%; in assay [5] it was 100%; in assay [6] it was 90%. In addition, the inhibition of growth at 10 ppm in assay [3] (setting [8]) and in assay [3] (setting [9]) was 100% throughout. In assay [1], the inhibition at 100 ppm turned out to be 95%.

Values taken from patent US4460782A, “2-Ethoxymethyl and 2-methoxymethyl N-(3,5-dichlorophenyl) succinamides” (Consortium fur Elektrochemische Industrie GmbH, priority 1980, dated 1984).
